Assay results published in patent US7083969B2, “Serratia marcescens strain” (Korea Research Institute of Bioscience and Biotechnology, priority 1997, dated 2006).

What was measured:
[1] = test system: CD8 T cell (cytotoxic T cell); experiment: Selective cytotoxicity: proportion of CD8 T cells after treatment; type: cell-based, mice; conditions: proportion of the cells
Excerpt: (§1) Germ-free test animals, mice BDF1 and B6C3F1, obtained from Genetic Resources Center, Korean Research Institute of Bioscience and Biotechnology in the Korean Institute of Science and Technology, were used for the assay of the immunosuppressive activity of prodigiosin. […] At such concentrations as show no cytotoxic effects, prodigiosin cannot suppress the immune response of B lymphocytes. […] This selective immunosuppression for T lymphocytes is not ascribed to the selective cytotoxicity for T lymphocytes. The same immunosuppression results as in the ex vivo experiments were obtained in in vivo experiments. When T lymphocyte activity was measured by use of a graft versus host reaction and a T cell-dependent antibody producing reaction, the prodigiosin suppressed the immune response, but exerted no toxicity on animals. Therefore, the immunosuppressive activity of the prodigiosin is thought to be attributed to the selective suppression for T lymphocyte activity.
(§2) Whether the selective immunosuppression of prodigiosin for T cells is attributed to the selective cytotoxicity for T cells or not was assayed by measuring the proportion of the cells. On the third day after treatment of the immune cells with prodigiosin, the number of the cells was counted. Because T lymphocytes consist of CD4 T cell (helper T cell) and CD8 T cell (cytotoxic T cell), the proportion of T and B lymphocytes was calculated in this Example.

[2] = Body weight of injected mice in graft versus host experiment (toxicity); type: in vivo
Protocol: (§3) A graft versus host reaction was utilized for the in vivo assay of prodigiosin's immunosuppression. The graft versus host reaction enables an assessment of the immune response of T lymphocytes. On the sixth day after transplantation of the T lymphocytes of BDF1 mice different in histocompatibility antigen, the lymphatic nodes were measured for weight, thereby assessing the immune response of T lymphocyte to the grafted heteroantigens. The prodigiosin was peritoneally injected at a dose of 30–100 mg per kg of body weight for five days while cyclophosphamide, as a positive control, was peritoneally injected at a dose of 100 mg/kg for five days. The body weights of the injected mice were measured to compare the toxicity of prodigiosin with that of cyclophosphamide. […] As for the body weight, it was not changed in the mice injected with prodigiosin at an effective concentration.

T lymphocytes [3] = experiment: T cell-dependent immune response in vivo (antibody producing cells after sheep red blood cell immunization); design: species or system mice; conditions: for Immune Response (%): 4 days after immunization
Excerpt: as §1
A T cell-dependent immune response reaction was used to assess the influence of prodigiosin on T lymphocytes in vivo. Test animals were immunized with sheep red blood cells by peritoneal injection. 4 days after the immunization, the number of the antibody producing cells was counted. Prodigiosin was peritoneally injected everyday. Based on the number of the […] cells in the non-treated animals, the influence of prodigiosin on T lymphocytes in vivo was assessed as percentage. Also, the weight ratio of the spleen to the body was measured to assay the toxicity of prodigiosin to the animals. Cyclophosphamide was used as a positive control.

T lymphocytes [4] = experiment: Graft versus host reaction in vivo (lymphatic node weight); design: species or system BDF1 mice; conditions: for Wt. (mg) of Lymphatic node: sixth day after transplantation
Excerpt: as §1, §3

[5] = test system: CD4 T cell (helper T cell); experiment: Selective cytotoxicity: proportion of CD4 T cells after treatment; type: cell-based, mice; conditions: proportion of the cells
Excerpt: as §1, §2

T lymphocyte = experiment: Concanavalin A-induced T lymphocyte proliferation (DNA synthesis); type: cell-based, mice; conditions: for Proliferation (%) T cell: three days
Excerpt: as §1
(§4) Three standard substances which induce lymphocytes to proliferate were employed to measure the effect of the prodigiosin on proliferation of lymphocytes. 5 μg/ml of lipopolysaccharide were used to induce B lymphocyte to proliferate, 5 μg/ml of Concanavalin A for T lymphocyte and 5 μg/ml of Pokeweed mitogen for B and T lymphocytes, both. Prodigiosin was added, together with the proliferation-inducing substance. Three days after the addition, the proliferation effect was monitored by measuring the amount of DNA synthesized. In order to exclude the cytotoxicity of prodigiosin, it was used at a concentration of not more than 100 nM. In Table 2, the proliferation percentages mean the proliferated amounts of prodigiosin-treated lymphocytes relative to that of an non-treated group. As shown, the suppression percentage effected by prodigiosin in amounts of 30–100 nM reaches up to 96–98% for the T lymphocyte induced by concanavalin A while the proliferation of B lymphocyte induced by lipopolysaccharide and the proliferation of B/T lymphocytes induced by pokeweed mitogen are suppressed to the extent of 13–19% and 45–83%, respectively.

B lymphocyte = experiment: Antibody production of B lymphocytes stimulated with lipopolysaccharide; type: cell-based, mice; conditions: for effect on antibody production / immune response of B lymphocytes (words): non-cytotoxic concentration range (3-100 nM)
Excerpt: as §1
The influence of prodigiosin on the functions of lymphocytes was measured using three reaction systems. First, the ability of B lymphocyte to proliferate in response to lipopolysaccharide stimulus was assessed. For this, on the third day after stimulation with lipopolysaccharide, the antibody production of the B lymphocyte was measured. When B lymphocytes are stimulated with lipopolysaccharide, they can produce antibodies without the aid of T lymphocyte. Second, a mixed lymphocyte reaction was induced in order to assess the effect on T-cell response. The reaction needs no aids from the B lymphocyte. On the third day after two types of heteroimmune cells, which are different from each other in histocompatibility antigen, were mixed to stimulate the activity of T lymphocytes, the T-cell response-was assessed. Third, the T-cell dependent antibody producing reaction was utilized to assess the effect of prodigiosin on the simultaneous immune response of both of the B and T lymphocytes. This reaction requires the functions of B and T lymphocytes, simultaneously. On the fifth day after immunization of the lymphocytes with the red blood cells of sheep, their antibody production ability was assessed.
In Table 3, the values are relative to the immune response of the lymphocytes untreated with prodigiosin.

B and T lymphocytes = experiment: Pokeweed mitogen-induced B and T lymphocyte proliferation (DNA synthesis); type: cell-based, mice; conditions: for Proliferation (%) B/T cells: three days
Excerpt: as §1, §4

CD4 T lymphocytes = experiment: Immunosuppressive activity on CD4 T lymphocytes; type: cell-based
[6] = 3 nM, third day after treatment
[7] = 10 mg/kg peritoneally for five days
[8] = 30 mg/kg peritoneally for five days

## CCCCCC1=C/C(=C/c2[nH]c(-c3ccc[nH]3)cc2OC)N=C1C [Prodigiosin, prodigiosin]
[1]; [6]
  Proliferation (%) CD8 T cell: 13%
[1]; 10 nM, third day
  Proliferation (%) CD8 T cell: 13%
[1]; 30 nM, third day
  Proliferation (%) CD8 T cell: 12%
[1]; 100 nM, third day
  Proliferation (%) CD8 T cell: 10%
[2]; [7]
  Body weight: 20 g
[2]; [8]
  Body weight: 21 g
[2]; at an effective concentration
  body weight change: not changed
T lymphocytes [3]; 10 mg/kg peritoneally everyday, antibody producing cells vs non-treated animals
  Immune Response (%): 32%
T lymphocytes [3]; 30 mg/kg peritoneally everyday
  Immune Response (%): 27%
T lymphocytes [3]; peritoneal injection everyday
  number of the antibody-producing cells: significantly reduced
T lymphocytes [4]; [7]
  Wt. (mg) of Lymphatic node: 1.12 mg
T lymphocytes [4]; [8]
  Wt. (mg) of Lymphatic node: 0.98 mg
T lymphocytes [4]; peritoneal injection for five days
  immune response of T lymphocytes in graft versus host reaction: potentially suppress
[5]; [6]
  Proliferation (%) CD4 T cell: 31%
[5]; 10 nM, third day
  Proliferation (%) CD4 T cell: 31%
[5]; 30 nM, third day
  Proliferation (%) CD4 T cell: 31%
[5]; 100 nM, third day
  Proliferation (%) CD4 T cell: 29%
T lymphocyte; 3 nM, 5 μg/ml Concanavalin A, relative to non-treated group
  Proliferation (%) T cell: 77%
T lymphocyte; 10 nM, Concanavalin A
  Proliferation (%) T cell: 46%
T lymphocyte; 30 nM, Concanavalin A
  Proliferation (%) T cell: 4%
T lymphocyte; 100 nM, Concanavalin A
  Proliferation (%) T cell: 2%
T lymphocyte; 30–100 nM
  suppression percentage, T lymphocyte induced by concanavalin A: 96–98%
T lymphocyte; non-cytotoxic concentrations
  effect on proliferation and activity of T lymphocytes: potential suppressive effect
B lymphocyte; 3 nM, antibody production, third day after lipopolysaccharide, relative to untreated lymphocytes
  Immune Response (%) B cell: 116%
B lymphocyte; 10 nM, third day
  Immune Response (%) B cell: 108%
B lymphocyte; 30 nM, third day
  Immune Response (%) B cell: 100%
B lymphocyte; 100 nM, third day
  Immune Response (%) B cell: 97%
B lymphocyte
  effect on antibody production / immune response of B lymphocytes (words): no influence
B lymphocyte; listed as prodigiosin
  effect on antibody production / immune response of B lymphocytes (words): not at all
B and T lymphocytes; 3 nM, 5 μg/ml Pokeweed mitogen, relative to non-treated group
  Proliferation (%) B/T cells: 100%
B and T lymphocytes; 10 nM, Pokeweed mitogen
  Proliferation (%) B/T cells: 86%
B and T lymphocytes; 30 nM, Pokeweed mitogen
  Proliferation (%) B/T cells: 55%
B and T lymphocytes; 100 nM, Pokeweed mitogen
  Proliferation (%) B/T cells: 17%
B and T lymphocytes; 30–100 nM
  suppression of proliferation of B/T lymphocytes induced by pokeweed mitogen: 45–83%
CD4 T lymphocytes
  immunosuppressive activity on CD4 T lymphocytes: has an immunosuppressive activity
